{"source": "patent US12077485B2", "about": "“Lipid nanoparticle compositions for delivering circular polynucleotides” (Orna Therapeutics, Inc., priority 2021, dated 2024)", "key": {"[1]": {"test_system": "splenic immune cells (T cells, myeloid cells, B cells, NK cells)", "experiment": "mOX40L expression in splenic immune cells, flow cytometry", "assay_type": "in vivo, C57BL/6 female mice", "conditions": "1 mg/kg intravenously, 24 hours, IL:P 5.7, 50:10:38.5:1.5; compared to Lipid 15 of Table 10f", "method": "The ionizable lipid: helper lipid: cholesterol: PEG-lipid molar ratio of these LNPs was 50:10:38.5:1.5. Dialysis of the LNPs were performed using PBS. C57BL/6 female mice (6-8 weeks, n=4) were dosed at either LNP comprising Lipid 1 of Table 10e or the Lipid 15 of Table 10f at 1 mg/kg intravenously. At 24 hours, the spleen from the mice were collected for flow cytometry analysis. mOX40L transfection of Lipid 1 of Table 10e and Lipid 15 of Table 10f were compared in T cells, myeloid cells, B cells, and NK cells."}, "[2]": {"test_system": "splenic T cells", "experiment": "mOX40L expression in splenic T cells, flow cytometry", "assay_type": "in vivo, C57BL/6 female mice", "conditions": "1 mg/kg intravenously, 24 hours, IL:P 5.7", "method": "The ionizable lipid: helper lipid: cholesterol: PEG-lipid molar ratio of these LNPs was 50:10:38.5:1.5. C57BL/6 female mice (6-8 weeks, n=4) were dosed at 1 mg/kg intravenously. At 24 hours, the spleen from the mice were collected for flow cytometry analysis, tested for weight loss and measured for serum alanine aminotransferase (ALT) after blood collection. mOX40L expression was measured in splenic T cells."}}, "data": [{"smiles": "CCCCCCCCCCCCC(O)CN(CCCO)CCCCCCCC(=O)OC(CCCCCCCC)CCCCCCCC", "note": "(centres unmarked) [Lipid 1 of Table 10e, heptadecan-9-yl 8-((3-hydroxypropyl)(2-hydroxytetradecyl)amino)octanoate]", "values": [{"measurement": "mOX40L transfection in splenic immune cells", "setting": "[1]", "result": "comparable or higher levels of mOX40L transfection"}, {"measurement": "expression of mOX40L in splenic T cells", "setting": "[2]", "result": "resulted in expression of mOX40L in splenic T cells"}]}]}
